Data on four compounds can be found in ChEMBL document CHEMBL1135286, “Synthesis and in vitro evaluation of a novel iodinated resiniferatoxin derivative that is an agonist at the human vanilloid VR1 receptor” (Bioorg Med Chem Lett, 2002).

Molecules are shown by their SMILES.

For test [1], the target named is T1, Transient receptor potential cation channel subfamily V member 1 (Homo sapiens, UniProt Q8NER1). Put plainly: Inhibition of [3H]RTX binding to human Vanilloid receptor subtype 1 expressed in HEK293 cells. The test is classed as cell-based.
Test [2] has as its target T1, Transient receptor potential cation channel subfamily V member 1. Put plainly: Percent induction of [Ca2+] influx compared to subsequent 80% maximal capsaicin response in human vanilloid receptor 1 expressing HEK293 cells. The test is classed as functional, cell-based.
Test [3] has the same target. The test can be described thus: Induced [Ca2+] influx in Vanilloid receptor subtype 1 expressing HEK 293 cells. The test is classed as functional, cell-based, HEK293.
Test [4] has as its target Transient receptor potential cation channel subfamily V member 1 (Rattus norvegicus) (UniProt O35433). The test can be described thus: Percent induction of [Ca2+] influx compared to subsequent 80% maximal capsaicin response in rat Vanilloid receptor 1 expressing HEK293 cells. It counts as functional, cell-based.

T1 sequence (Q8NER1 whole entry): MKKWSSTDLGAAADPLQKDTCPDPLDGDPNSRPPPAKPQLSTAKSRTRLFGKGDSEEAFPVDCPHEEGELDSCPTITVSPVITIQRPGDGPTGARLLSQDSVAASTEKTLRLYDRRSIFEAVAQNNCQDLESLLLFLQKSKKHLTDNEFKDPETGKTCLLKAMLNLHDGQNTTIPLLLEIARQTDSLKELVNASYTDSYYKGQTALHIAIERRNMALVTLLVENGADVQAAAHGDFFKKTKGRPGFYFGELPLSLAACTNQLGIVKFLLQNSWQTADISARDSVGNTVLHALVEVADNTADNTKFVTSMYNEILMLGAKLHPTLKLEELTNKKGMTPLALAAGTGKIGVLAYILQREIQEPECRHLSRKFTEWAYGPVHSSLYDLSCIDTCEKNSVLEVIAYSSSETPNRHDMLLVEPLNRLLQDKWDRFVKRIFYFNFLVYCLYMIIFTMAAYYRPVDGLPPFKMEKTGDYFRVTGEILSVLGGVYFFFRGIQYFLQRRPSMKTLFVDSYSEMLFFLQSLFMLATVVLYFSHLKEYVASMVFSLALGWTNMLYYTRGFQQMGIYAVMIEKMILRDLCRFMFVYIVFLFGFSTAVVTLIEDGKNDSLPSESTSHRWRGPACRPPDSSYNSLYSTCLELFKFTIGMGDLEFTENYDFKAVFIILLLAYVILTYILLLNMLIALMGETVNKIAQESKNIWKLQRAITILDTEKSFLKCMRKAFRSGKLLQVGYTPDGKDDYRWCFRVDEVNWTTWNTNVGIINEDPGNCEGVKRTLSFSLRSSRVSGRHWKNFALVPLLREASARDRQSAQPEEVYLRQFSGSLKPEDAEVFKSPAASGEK
Chain of Transient receptor potential cation channel subfamily V member 1 (Rattus norvegicus) (O35433 whole entry): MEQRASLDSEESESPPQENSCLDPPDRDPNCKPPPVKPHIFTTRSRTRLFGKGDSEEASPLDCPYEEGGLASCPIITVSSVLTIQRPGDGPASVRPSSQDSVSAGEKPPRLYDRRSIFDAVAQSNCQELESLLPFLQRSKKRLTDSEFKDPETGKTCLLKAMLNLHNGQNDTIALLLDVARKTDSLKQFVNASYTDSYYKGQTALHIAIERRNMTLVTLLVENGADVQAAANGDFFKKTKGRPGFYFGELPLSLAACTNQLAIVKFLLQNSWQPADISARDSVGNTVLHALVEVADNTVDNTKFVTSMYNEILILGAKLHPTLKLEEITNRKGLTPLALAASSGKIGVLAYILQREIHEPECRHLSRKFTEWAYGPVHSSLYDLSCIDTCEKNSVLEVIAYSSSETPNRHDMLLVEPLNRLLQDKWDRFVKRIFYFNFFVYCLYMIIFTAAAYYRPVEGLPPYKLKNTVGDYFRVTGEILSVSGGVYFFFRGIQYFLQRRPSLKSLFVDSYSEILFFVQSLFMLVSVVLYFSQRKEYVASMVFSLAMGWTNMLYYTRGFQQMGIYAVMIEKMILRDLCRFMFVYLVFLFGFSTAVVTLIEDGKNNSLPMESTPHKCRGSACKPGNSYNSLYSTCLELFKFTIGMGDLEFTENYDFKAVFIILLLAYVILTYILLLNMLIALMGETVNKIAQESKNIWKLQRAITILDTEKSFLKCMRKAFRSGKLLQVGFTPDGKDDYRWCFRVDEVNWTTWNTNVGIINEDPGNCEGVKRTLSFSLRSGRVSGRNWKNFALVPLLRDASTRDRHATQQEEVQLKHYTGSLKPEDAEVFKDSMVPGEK

Turning to `C=C(C)[C@]12C[C@@H](C)[C@@]34O[C@](Cc5ccccc5)(O[C@@H]1[C@@H]3C=C(COC(=O)Cc1cc(OC)c(OC(C)=O)cc1I)C[C@]1(O)C(=O)C(C)=C[C@@H]41)O2`, the Ki (usually a dissociation constant, usually derived from enzyme kinetics or from competition with a known ligand) in test [1] is 1.46 nM. Further, the Efficacy in test [2] is 75%. Besides, the EC50 (in general, the concentration needed to bring the measured effect to its halfway point) in test [3] worked out at 935 nM.

Regarding `C=C(C)[C@]12C[C@@H](C)[C@@]34OC(Cc5ccccc5)(O[C@@H]1[C@@H]3C=C(COC(=O)Cc1ccc(O)c(OC)c1I)C[C@]1(O)C(=O)C(C)=C[C@@H]41)O2`, the Ki in test [1] was determined as 1.4 nM. Besides, the IC50 (usually the concentration at which inhibition is half-maximal) in test [3] was found to be 27 nM.

Regarding `C=C(C)[C@]12C[C@@H](C)[C@@]34O[C@](Cc5ccccc5)(O[C@@H]1[C@@H]3C=C(COC(=O)Cc1ccc(O)c(OC)c1)C[C@]1(O)C(=O)C(C)=CC41)O2` (single isomer, unassigned) [RESINIFERATOXIN], in test [1], the Ki worked out at 0.48 nM. In test [2], this compound had an Efficacy of 116%. The same compound had an EC50 in test [3] of 1.9 nM.

Compound `C=C(C)[C@]12C[C@@H](C)[C@@]34O[C@](Cc5ccccc5)(O[C@@H]1[C@@H]3C=C(COC(=O)Cc1cc(OC)c(O)cc1I)C[C@]1(O)C(=O)C(C)=C[C@@H]41)O2` returned a Ki in test [1] of 0.71 nM. Also, the Efficacy in test [2] worked out at 50%; in test [4], 92%. Moreover, the EC50 in test [3] was found to be 130 nM.
